Laboratory results reported in US20240369511A1, “INTEGRATED ELECTROCHEMICAL APTASENSORS FOR MEASURING CELL DEATH AND CYTOKINE ACTIVITY FROM INTACT TISSUE SAMPLES” (University of Washington, priority 2023, published 2024).

Columns and labels:
[1] = test system: cuboids from a human colorectal tumor biopsy; assay: CytC in supernatant of drug-treated human tumor cuboids, aptasensor platform; format: cell-based; details: three days treatment; Staurosporine 1 μM, FOLFOX 1 μg/mL 5FU+1 μg/mL Oxaliplatin, FOLFIRI 5FU+Irinotecan
Experimental: (§1) Measurement of CytC from the supernatant of human microdissected cancer tissue cultured with drugs using the aptasensor platform. A study was conducted to assess the aptasensor platform's ability to quantify CytC secretion from human cuboids after drug treatments for three days in culture with Staurosporine, FOLFOX (a combination of fluorouracil and oxaliplatin), and FOLFIRI (a combination of fluorouracil and irinotecan), in comparison to the dimethyl sulfoxide (DMSO) vehicle control. Uniform-sized cuboids were prepared from a human colorectal tumor biopsy. Each drug condition was prepared in duplicate. Subsequently, the supernatants were collected and the level of CytC released from the cuboids after cell death was measured using the aptasensor platform. To validate the platform's measurements, the results were compared with those obtained from ELISA (FIG. 4D). […] In some cases, the platform even indicated higher production rates. Duplicates for both the sensor and for the ELISA were consistent. […] While the trend in measurements for supernatant 1 and supernatant 2 was similar between sensor reading and ELISA, the higher concentration observed in sensor readings may stem from variations in the sensor-specific calibration curves.
(§2) Human colorectal cancer tumor supernatant. Colorectal tumor biopsy was obtained from a person with metastatic cancer who had been off treatment for a year. […]

[2] = test system: cuboids from a human colorectal tumor biopsy; assay: CytC in supernatant of drug-treated human tumor cuboids, ELISA; format: cell-based; details: three days treatment; duplicated supernatant samples; same drug concentrations
Experimental: as §1, §2

`CN[C@@H]1C[C@H]2O[C@@](C)([C@@H]1OC)n1c3ccccc3c3c4c(c5c6ccccc6n2c5c31)C(=O)NC4` [Staurosporine] was tested, and the “CytC production relative to DMSO control vehicle (aptasensor platform)” value [1] was ~3 fold and the “CytC production relative to DMSO control vehicle (ELISA)” value [2] was 4.23 fold.
